Test results published in patent US6262094A (priority 1999, dated 2001).
Values after ≈ are worked out from the molar mass of the structure shown.

Key:
Format in all cases: cell-based
[1] = test system: U-937 (DSM ACC 5), human histiocytic lymphoma; assay: Growth inhibition, WST-1 reduction in microtiter plates; conditions: 120 h, U-937, incubation period of 5 days, read-out: IC50 K-562/U-937 leukemia
[2] = test system: PC-3 (ATCC CRL 1435), human prostate adenocarcinoma; conditions: 120 h, PC-3, incubation period of 5 days, MTT
[3] = test system: KB-3.1 (DSM ACC 158), human cervix carcinoma; conditions: KB 3-1, 120 h, KB-3.1, incubation period of 5 days, MTT
[4] = test system: SK-OV-3 (ATCC HTB-77), human ovary adenocarcinoma; conditions: 120 h, SK-OV-3, incubation period of 5 days, MTT
[5] = test system: K-562 (ATCC CCL-243), human chronic myelogenous leukemia; assay: Growth inhibition, WST-1 reduction in microtiter plates; conditions: K562, 120 h, K-562, incubation period of 5 days, read-out: IC50 K-562/U-937 leukemia
[6] = test system: A-549 (DSM ACC 107), human lung carcinoma; conditions: A549, 120 h, A-549, incubation period of 5 days, MTT

C=Cc1nc(/C=C(\C)[C@@H]2C[C@@H]3O[C@@H]3CCC[C@H](C)[C@H](O)[C@@H](C)C(=O)C(C)(C)[C@@H](O)CC(=O)O2)cs1 [20-vinyl-epo A, [1S-[1R*,3R*(E),7R*,10S*,11R*,12R*,16S*]]-3-[2-(2-Ethenyl-4-thiazolyl)-1-methylethenyl]-7,11-dihydroxy-8,8,10,12-tetramethyl-4,17-dioxabicyclo[14.1. 0]heptadecane-5,9-dione]
IC50 [1]: 1.5 ng/mL (≈ 2.97 nM)
IC50 [2]: 0.4 ng/mL (≈ 0.791 nM)
IC50 [3]: 3 ng/mL (≈ 5.93 nM)
IC50 [4]: 1 ng/mL (≈ 1.98 nM)

C/C(=C\c1csc(CN)n1)[C@@H]1C[C@@H]2O[C@@H]2CCC[C@H](C)[C@H](O)[C@@H](C)C(=O)C(C)(C)[C@@H](O)CC(=O)O1 [21-amino-epo A]
IC50 [1]: 3 ng/mL (≈ 5.9 nM)
IC50 [2]: 3 ng/mL (≈ 5.9 nM)
IC50 [3]: 4 ng/mL (≈ 7.86 nM)
IC50 [4]: 4 ng/mL (≈ 7.86 nM)

C/C(=C\c1csc(CN)n1)[C@@H]1C[C@@H]2O[C@]2(C)CCC[C@H](C)[C@H](O)[C@@H](C)C(=O)C(C)(C)[C@@H](O)CC(=O)O1 [21-amino-epo B, [1S-[1R*,3R*(E),7R*,10S*,11R*,12R*,16S*]]-3-[2-[2-(Aminomethyl)-4-thiazolyl]-1-methylethenyl]-7,11-dihydroxy-8,8,10,12,16-pentamethyl-4,17-dioxabicyclo[14.1.0]heptadecane-5,9-dione]
IC50 [2]: 1.5 ng/mL (≈ 2.87 nM)
IC50 [3]: 0.4 ng/mL (≈ 0.765 nM)

C/C(=C\c1csc(CN=[N+]=[N-])n1)[C@@H]1C[C@@H]2O[C@]2(C)CCC[C@H](C)[C@H](O)[C@@H](C)C(=O)C(C)(C)[C@@H](O)CC(=O)O1 [21-azido-epo B, [1S-[1R*,3R* (E),7R*, 10S*,11R*,12R*,16S*]]-3-[2-[2-(Azidomethyl)-4-thiazolyl]-1-methylethenyl]-7,11-dihydroxy-8,8,10,12,16-pentamethyl-4,17-dioxabicyclo[14.1. 0]heptadecane-5,9-dione]
IC50 [2]: 0.4 ng/mL (≈ 0.729 nM)
IC50 [3]: 0.5 ng/mL (≈ 0.911 nM)

C/C(=C\c1csc(CCl)n1)[C@@H]1C[C@@H]2O[C@@H]2CCC[C@H](C)[C@H](O)[C@@H](C)C(=O)C(C)(C)[C@@H](O)CC(=O)O1 [21-chloro-epo A]
IC50 [5]: 12 ng/mL (≈ 22.7 nM)
IC50 [3]: 60 ng/mL (≈ 114 nM)
IC50 [6]: 10 ng/mL (≈ 18.9 nM)
